The source of these data is PMC9416163, “Antiproliferative Copper(II) Complexes Bearing Mixed Chelating Ligands: Structural Characterization, ROS Scavenging, In Silico Studies, and Anti-Melanoma Activity” (Pharmaceutics, 2022).

pIC50: −log10 of the molar value.

For data set [1], the system named is Human fibroblast cells (BJ). Description: MTT cell viability assay on BJ cells. Type of data set: cell-based. The note with it: for pIC50: MTT. As for the experimental part: (§1) Human fibroblast cells (BJ-ATCC CRL-2522, USA) were grown in minimal essential medium (MEM) supplemented with 2 mM L-Glutamine, 10% fetal calf serum (FCS), 100 units/mL of penicillin, and 100 µg/mL of streptomycin at 37 °C in a humidified incubator under an atmosphere containing 5% CO2. Mouse melanoma cells (B16-ATCC CRL-6475, USA) were grown in DMEM (Dulbecco’s Modified Eagle Medium) supplemented with reagents like MEM. All cell cultivation media and reagents were purchased from Biochrom AG (Berlin, Germany) and Sigma-Aldrich (Darmstadt, Germany).
(§2) Cell viability was evaluated using the MTT assay (3-(4,5-dimethylthiazol-2-yl)-2,5-diphenyltetrazolium bromide) as previously described. Briefly, BJ and B16 cells were seeded in 96-well plates at densities of 10,000 cells/well and 7000 cells/well and further cultured in the medium for 24 h. The next day, the investigated compounds were added at a concentration of 1 to 25 μM for 24 and 48 h. The cells cultivated in medium without the studied samples served as negative controls. After incubation for the desired times, the medium was replaced with MTT solution (1 mg/mL) and incubated for an additional 4 h at 37 °C. Finally, the medium was collected, and DMSO was used to dissolve the insoluble formazan product. A Mithras 940 (Berthold, Bad Wildbad, Germany) plate reader was used to measure the absorbance of the samples at 570 nm. The data were corrected for background, and the percentage of viable cells was obtained using the following equation:Cell viability = [(A570 of treated cells)/(A570 of untreated cells)] × 100 (%)
(§3) Half-maximal inhibitory concentration (IC50) was determined by fitting the data with a sigmoidal logistic function using Origin 8.1 (Microcal Inc., Northampton, MA, USA) software.

Data set [2] is described as follows: EPR, interaction with superoxide (KO2). The following applies: 100 µM in DMSO, KO2 added. As for the experimental part:
The C, N, and H chemical analyses were carried out with a EuroEA elemental analyzer. Fourier Transform Infrared spectroscopy (FTIR) spectra were recorded with a Tensor 37 spectrometer (Bruker, Billerica, MA, USA) in the 400–4000 cm^−1 range. A Jasco V 670 spectrophotometer (Jasco, Easton, MD, USA) with Spectralon as a standard in the 200–1500 nm range was used to record the UV-Vis spectra in solid-state. A continuous wave X-Band Bruker EMX plus EPR spectrometer (Bruker, Karlsruhe, Germany) equipped with a Bruker X-SHQ 4119HS-W1 X-Band resonator was used for the X-band EPR measurements. The parameters for the X-Band measurements were set as follows: microwave frequency 9.879 GHz, microwave power 6.325 mW, modulation amplitude 0.2 mT, conversion time 74.17 ms, and time constant 40.96 ms at 35 scans. All measurements were carried out at room temperature. Simultaneous Thermogravimetric/Differential Scanning Calorimetry–Mass spectroscopy (TG-DSC/MS) measurements were performed on a TGA/DSC1 Thermal Analyser (Mettler Toledo, Schwarzenbach, Switzerland), coupled to a Vacuum Thermostar Mass Spectrometer (Pfeiffer, Asslar, Germany) under the following conditions: isothermal conditioning at 25 °C, temperature range from 25 to 800 °C, heating rate 5 °C/min, dynamic air atmosphere with a flow rate of 100 mL/min, sample masses of 2–4 mg, 150 μL platinum crucible; empty crucible served as reference. The blank curve was subtracted. Evolved gasses were introduced into the Mass Spectrometer via a 75 cm heated capillary.
In contrast, all compounds in the presence of HO⋅ radicals show the trapping ability of these radicals, as indicated by the additional EPR signals in all four EPR spectra.

The subject of data set [3] is B16 murine melanoma cells. Description: MTT cell viability assay on B16 cells. The following applies: for pIC50: MTT. The format is cell-based, mouse. As for the experimental part: as §1, §2, §3
The subject of a further data set is B16 cells. Description: Cell cycle analysis (PI, flow cytometry). The following applies: 24 h; for changes in the cell cycle: 1 μM or 5 μM; for cells in the G2/M phase: untreated 15.53%; for cells in the S phase: untreated 25.65%; for cells in the G0/G1 phase: untreated 49.70%. The format is cell-based, mouse. As for the experimental part:
Twenty-four hours after treatment of B16 cells with concentrations of 1 and 5 μM of each compound, cells were harvested and fixed with pre-chilled 70% ethanol solution at −20 °C. Cells were incubated with 0.2 mg/mL RNAse and 20 μg/mL propidium iodide (PI) in a 0.1% Triton TX-100 solution, in the dark, for 30 min at 37 °C. Cell cycle distribution was analyzed using a Beckman Coulter Cell Lab Quanta SC Flow Cytometer (Indianapolis, IN, USA), and the data were analyzed using the Quanta Analysis software.

The next data set has as its system MKN-45 cells. Set-up: method as in doi:10.1080/00958972.2018.1447668. The following applies: 48 h of incubation; cited from earlier work.

On to `CC(=O)C=C([O-])c1ccccc1.O=[N+]([O-])[O-].[Cu+2].c1ccc(-c2ccccn2)nc1` [Compound (4), [Cu(bpy)(bzac)(NO3)]], for which the pIC50 was 4.93 in data set [1] (24 h), 4.99 in data set [1] (48 h), 5.19 in data set [3] (24 h) and 5.33 in data set [3] (48 h). For the same molecule, the “response to O2⋅^− radicals (EPR)” value in data set [2] is recorded as “neither scavenging nor a trapping ability toward superoxide radicals”. The “changes in the cell cycle” value with B16 cells is given as “no changes in the cell cycle were observed”.

`CC(=O)C=C([O-])c1ccccc1.[Cu+2].[O-][Cl+3]([O-])([O-])[O-].c1ccc(-c2ccccn2)nc1` [Compound (3), [Cu(bpy)(bzac)]ClO4]: the negative logarithm of the IC50 (pIC50) in data set [1] (24 h) is 4.96; in data set [1] (48 h) it was 4.98; in data set [3] (24 h), 5.08; in data set [3] (48 h), 5.33. For the same molecule, in data set [2], the “response to O2⋅^− radicals (EPR)” value is reported as “exhibit a scavenging response”. Besides, in the data set with MKN-45 cells, the “cytotoxicity compared with 5-fluorouracil” value is listed as “significantly more cytotoxic against MKN-45 cells than 5-fluorouracil”. The “changes in the cell cycle” value with B16 cells is “no changes in the cell cycle were observed”.

As to `CC(=O)C=C([O-])c1ccccc1.[Cu+2].[O-][Cl+3]([O-])([O-])[O-].c1cnc2c(c1)ccc1cccnc12` [Compound (1), [Cu(phen)(bzac)(ClO4)]], the cell viability was 20% in data set [1] (10 μM), “about 15%” in data set [1] (up to 25 μM), 10% in data set [3] (10 μM) and “about 5%” in data set [3] (up to 25 μM). For the same molecule, the pIC50 in data set [1] (24 h) was 5.40; in data set [1] (48 h), 5.55; in data set [3] (24 h) it was 5.46; in data set [3] (48 h), 5.66. Besides, the “response to O2⋅^− radicals (EPR)” value in data set [2] was “exhibit a scavenging response”. In addition, the “cytotoxicity compared with 5-fluorouracil” value in the data set with MKN-45 cells is recorded as “significantly more cytotoxic against MKN-45 cells than 5-fluorouracil”. For the same molecule, the “cells in the sub-G1 phase” value in the data set with B16 cells (5 μM, untreated 9.11%) worked out at 18.43%. For the same molecule, the “cells in the G2/M phase” value in the data set with B16 cells (5 μM) is given as 5.59%. Moreover, the “cells in the S phase” value in the data set with B16 cells (5 μM) is on record as 15.82%. Further, the “cells in the G0/G1 phase” value with B16 cells (5 μM) stood at 60.14%.

For the molecule `CC(=O)C=C([O-])c1ccccc1.O.O=[N+]([O-])[O-].[Cu+2].c1cnc2c(c1)ccc1cccnc12` [Compound (2), [Cu(phen)(bzac)(NO3)]⋅H2O], the cell viability in data set [1] (10 μM) is recorded as 20%; in data set [1] (up to 25 μM), “about 15%”; in data set [3] (10 μM), 10%; in data set [3] (up to 25 μM), “about 5%”. Further, the negative logarithm of the IC50 (pIC50) in data set [1] (24 h) was 5.31; in data set [1] (48 h), 5.61; in data set [3] (24 h), 5.58; in data set [3] (48 h), 5.84. In addition, in data set [2], the “response to O2⋅^− radicals (EPR)” value is on record as “exhibit a scavenging response”. The “cells in the G2/M phase” value with B16 cells (5 μM) stood at 10.78%. For the same molecule, the “cells in the S phase” value with B16 cells (5 μM) amounted to 13.81%. In addition, the “cells in the G0/G1 phase” value with B16 cells (5 μM) was determined as 54.90%.
